The results in this text go back to patent US10889553B2, “Asymmetric triazole benzamide derivatives and the compositions and methods of treatment regarding the same” (NysnoBio Ireland DAC, priority 2017, dated 2021).

“And” between values parts separate entries of the source, which are not always exact repeats. Equal entries are not always repeated.

The experiment deals with T1, Parkin ligase (Homo sapiens, UniProt O60260).
T1 sequence (O60260 1-465): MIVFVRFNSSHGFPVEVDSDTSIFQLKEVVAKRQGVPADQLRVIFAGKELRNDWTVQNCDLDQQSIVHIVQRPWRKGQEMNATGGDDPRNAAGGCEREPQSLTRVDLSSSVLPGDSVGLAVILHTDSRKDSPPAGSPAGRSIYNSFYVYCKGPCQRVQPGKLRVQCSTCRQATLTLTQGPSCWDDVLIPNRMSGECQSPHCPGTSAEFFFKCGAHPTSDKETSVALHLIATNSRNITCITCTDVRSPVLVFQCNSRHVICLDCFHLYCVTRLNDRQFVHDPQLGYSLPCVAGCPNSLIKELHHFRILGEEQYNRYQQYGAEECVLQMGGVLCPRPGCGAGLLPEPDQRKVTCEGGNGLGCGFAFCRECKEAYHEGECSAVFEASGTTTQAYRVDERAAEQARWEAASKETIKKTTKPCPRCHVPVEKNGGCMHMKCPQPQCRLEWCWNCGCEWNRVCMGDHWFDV
Description: Activity-Based Probe Assay using Ubiquitin vinyl sulfone probe (TR-FRET). Conditions: heat activated Parkin, HA-Ub-VS probe, activation EC50; read-out: Probe Assay EC50 (μM) [Example 2]. It is filed as biochemical. An outline of the steps:
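Heat-activated His-Parkin (5 min, 58 °C; 40 nM) was preincubated 15 min with compound, then reacted 60 min at 22 °C with 70 nM HA-Ub-VS in 50 mM HEPES pH 8.5, 150 mM NaCl, 0.01% Tween 20, 0.1% BSA. Probe labelling was read by anti-His-Eu/anti-HA-XL665 TR-FRET (665/615 ratio). % activation was normalized to DMSO and 100 nM control activator, then fitted with a four-parameter curve (Bottom=0, Top=100).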
A general note: In TR-FRET formats the signal depends on donor and acceptor labels being close together.

Take `C#Cc1ccc(C(=O)Nc2nc(NC(=O)c3cccc(N=[N+]=[N-])c3)n(-c3ccccc3)n2)cc1` [Compound 2]: the EC50 is 4 µM.

With `Cc1ccccc1C(=O)Nc1nc(NC(=O)c2cccnc2)nn1-c1ccccc1` [Compound 6], the half-maximal effective concentration (EC50) came to 2 µM.

As for `Cc1ccccc1C(=O)Nc1nc(NC(=O)c2ccno2)n(-c2ccccc2)n1` [Compound 7], the EC50 was 12 µM.

On to `Cc1ccccc1C(=O)Nc1nc(NC(=O)c2ccccn2)nn1-c1ccccc1` [Compound 16], for which the EC50 came to 3 µM.

For `Cc1ccccc1C(=O)Nc1nc(NC(=O)c2cnccn2)n(-c2ccccc2)n1` [Compound 17], the half-maximal effective concentration (EC50) is 10 µM.

On to `Cc1ccccc1C(=O)Nc1nc(NC(=O)C2CCCN2)nn1-c1ccccc1` (stereo not drawn) [Compound 20], for which the EC50 was found to be 2 µM.

With `Cc1ccc(C(=O)Nc2nc(NC(=O)c3ccc(C)cc3)n(-c3ccccc3)n2)cc1` [Compound 21], the EC50 came to 5 µM.

Regarding `COc1ccccc1C(=O)Nc1nc(NC(=O)c2ccccc2OC)n(-c2ccccc2)n1` [Compound 23], the EC50 stood at 10 µM.

As for `Cc1ccccc1C(=O)Nc1nc(NC(=O)c2ccccc2C)n(-c2ccc(F)c(F)c2)n1` [Compound 24], the EC50 came to 3 µM.

Turning to `Cc1ccccc1C(=O)Nc1nc(NC(=O)c2ccccc2C)n(-c2ccc(C(F)(F)F)cc2)n1` [Compound 25], the EC50 is 0.9 µM and 2 µM.

For the compound `Cc1ccccc1C(=O)Nc1nc(NC(=O)c2ccccc2C)n(-c2ccccc2Cl)n1` [Compound 26], the EC50 was determined as 6 µM.

`Cc1ccc(-n2nc(NC(=O)c3ccccc3C)nc2NC(=O)c2ccccc2C)cc1` [Compound 31]: the half-maximal effective concentration (EC50) amounted to 4 µM.

`Cc1ccccc1C(=O)Nc1nc(NC(=O)c2ccccc2C)n(-c2ccccc2F)n1` [Compound 32]: the EC50 was 9 µM.

On to `O=C(Nc1nc(NC(=O)c2ccncc2)n(-c2ccccc2)n1)c1ccncc1` [Compound 33], for which the EC50 turned out to be 3 µM.

Consider `Cc1ccccc1C(=O)Nc1nc(NC(=O)c2ccncc2)nn1-c1ccccc1` [Compound 34], for which the 50% effective concentration (EC50) amounted to 2 µM.

For `Cc1ccccc1C(=O)Nc1nc(NC(=O)c2ccccc2C)n(-c2ccc(C#N)cc2)n1` [Compound 35], the EC50 was determined as 3 µM.

As to `Cc1ccccc1C(=O)Nc1nc(NC(=O)c2ccccc2C)n(-c2cccc(Cl)c2)n1` [Compound 36], the EC50 is 3 µM and 4 µM.

`COc1ccc(C(=O)Nc2nc(NC(=O)c3ccc(OC)cc3)n(-c3ccccc3)n2)cc1` [Compound 37]: the EC50 is 4 µM.

Turning to `Cc1cccc(-n2nc(NC(=O)c3ccccc3C)nc2NC(=O)c2ccccc2C)c1` [Compound 38], the EC50 was found to be 5 µM.

On to `Cc1ccccc1C(=O)Nc1nc(NC(=O)c2ccccc2C)n(-c2cccc(F)c2)n1` [Compound 39], for which the EC50 came out at 4 µM.

In the case of `O=C(Nc1nc(NC(=O)c2cccnc2)n(-c2ccccc2)n1)c1cccnc1` [Compound 40], the EC50 stood at 1 µM.

As for `O=C(Nc1nc(NC(=O)c2ccccn2)n(-c2ccccc2)n1)c1ccccn1` [Compound 41], the EC50 amounted to 2 µM.

Take `Cc1ccccc1C(=O)Nc1nc(NC(=O)c2ccccc2C)n(-c2ccc(OC(F)(F)F)cc2)n1` [Compound 42, N,N′-(1-(4-(trifluoromethoxy)phenyl)-1H-1,2,4-triazole-3,5-diyl)bis(2-methylbenzamide)]: the EC50 was 1 µM and 3 µM.

With `Cc1ccccc1C(=O)Nc1nc(NC(=O)c2ccccc2C)n(-c2ccc(N3CCCCC3)cc2)n1` [Compound 44], the EC50 was determined as 3 µM.

With `Cc1ccccc1C(=O)Nc1nc(NC(=O)c2ccccc2C)n(-c2ccc(F)cc2F)n1` [Compound 46], the EC50 was determined as 6 µM.

As for `Cc1ccccc1C(=O)Nc1nc(NCc2ccccc2)nn1-c1ccc(C(F)(F)F)cc1` [Compound 102], the EC50 came out at 2 µM.

As for `Cc1ccnc(-c2nc(NC(=O)c3ccccc3C)n(-c3ccccc3)n2)c1` [Compound 124], the EC50 was 3 µM.

One may read the EC50 as the concentration that produces a half-maximal response.
